According to ChEMBL document CHEMBL3044811, “Efficacy of grain protectants against four psocid species on maize, rice and wheat” (2009):
The source made the active and inactive calls. The rule behind the calls is not given here.

Columns and labels:
Lepinotus reticulatus [1] = experiment: Insecticidal activity against Lepinotus reticulatus in compound pre-treated wheat grains assessed as mortality at 1.6 ppm after 14 days (reference value: 21.1 +/-7.4%); type: functional
Liposcelis entomophila [2] = experiment: Insecticidal activity against Liposcelis entomophila in compound pre-treated wheat grains assessed as mortality at 1.6 ppm after 14 days (reference value: 13.3 +/-4.7%); type: functional
Liposcelis entomophila [3] = experiment: Insecticidal activity against Liposcelis entomophila in compound pre-treated maize grains assessed as mortality at 1.6 ppm after 14 days (reference value: 14.4 +/-4.1%); type: functional
Liposcelis paeta [4] = experiment: Insecticidal activity against Liposcelis paeta in compound pre-treated rice grains assessed as mortality at 2.2 ppm after 7 days (reference value: 3.3 +/-1.7%); type: functional
[5] = tested on: Liposcelis bostrychophila; experiment: Insecticidal activity against Liposcelis bostrychophila (booklice) in compound pre-treated rice grains assessed as mortality at 2.2 ppm after 14 days (reference value: 9.7 +/-2.4%); type: functional
Liposcelis entomophila [6] = experiment: Insecticidal activity against Liposcelis entomophila in compound pre-treated rice grains assessed as effect on progeny production at 2.2 ppm after 30 days; type: functional, organism-based
[7] = tested on: Liposcelis bostrychophila; experiment: Insecticidal activity against Liposcelis bostrychophila (booklice) in compound pre-treated maize grains assessed as decrease in progeny production at 1.6 ppm after 30 days; type: functional, organism-based
[8] = tested on: Liposcelis bostrychophila; experiment: Insecticidal activity against Liposcelis bostrychophila (booklice) in compound pre-treated wheat grains assessed as mortality at 1.6 ppm after 7 days (reference value: 3.3 +/-1.7%); type: functional
Liposcelis paeta [9] = experiment: Insecticidal activity against Liposcelis paeta in compound pre-treated maize grains assessed as mortality at 1.6 ppm after 14 days (reference value: 14.1 +/-4.1%); type: functional
Lepinotus reticulatus [10] = experiment: Insecticidal activity against Lepinotus reticulatus in compound pre-treated wheat grains assessed as decrease in progeny production at 1.6 ppm after 30 days; type: functional, organism-based
Liposcelis entomophila [11] = experiment: Insecticidal activity against Liposcelis entomophila in compound pre-treated rice grains assessed as mortality at 2.2 ppm after 7 days (reference value: 3.3 +/-2.6%); type: functional
[12] = tested on: Liposcelis bostrychophila; experiment: Insecticidal activity against Liposcelis bostrychophila (booklice) in compound pre-treated maize grains assessed as mortality at 1.6 ppm after 7 days (reference value: 8.9 +/-2.6%); type: functional
Liposcelis entomophila [13] = experiment: Insecticidal activity against Liposcelis entomophila in compound pre-treated wheat grains assessed as decrease in progeny production at 1.6 ppm after 30 days; type: functional, organism-based
[14] = tested on: Liposcelis bostrychophila; experiment: Insecticidal activity against Liposcelis bostrychophila (booklice) in compound pre-treated rice grains assessed as mortality at 2.2 ppm after 7 days (reference value: 8.9 +/-4.5%); type: functional
Lepinotus reticulatus [15] = experiment: Insecticidal activity against Lepinotus reticulatus in compound pre-treated maize grains assessed as mortality at 1.6 ppm after 14 days (reference value: 61.1 +/-11.9%); type: functional
Liposcelis entomophila [16] = experiment: Insecticidal activity against Liposcelis entomophila in compound pre-treated wheat grains assessed as mortality at 1.6 ppm after 7 days (reference value: 5.6 +/-2.9%); type: functional
[17] = tested on: Liposcelis bostrychophila; experiment: Insecticidal activity against Liposcelis bostrychophila (booklice) in compound pre-treated wheat grains assessed as mortality at 1.6 ppm after 14 days (reference value: 6.8 +/-3.3%); type: functional
Liposcelis entomophila [18] = experiment: Insecticidal activity against Liposcelis entomophila in compound pre-treated maize grains assessed as decrease in progeny production at 1.6 ppm after 30 days; type: functional, organism-based
Lepinotus reticulatus [19] = experiment: Insecticidal activity against Lepinotus reticulatus in compound pre-treated rice grains assessed as mortality at 2.2 ppm after 7 days (reference value: 6.8 +/-2.4%); type: functional
Liposcelis paeta [20] = experiment: Insecticidal activity against Liposcelis paeta in compound pret-reated maize grains assessed as mortality at 1.6 ppm after 7 days (reference value: 13.3 +/-3.3%); type: functional; settings: 168 h
Liposcelis paeta [21] = experiment: Insecticidal activity against Liposcelis paeta in compound pre-treated rice grains assessed as mortality at 2.2 ppm after 14 days (reference value: 3.4 +/-1.6%); type: functional
[22] = tested on: Liposcelis bostrychophila; experiment: Insecticidal activity against Liposcelis bostrychophila (booklice) in compound pre-treated rice grains assessed as effect on progeny production at 2.2 ppm after 30 days; type: functional, organism-based
Lepinotus reticulatus [23] = experiment: Insecticidal activity against Lepinotus reticulatus in compound pre-treated maize grains assessed as mortality at 1.6 ppm after 7 days (reference value: 34.4 +/-11.4%); type: functional
Liposcelis paeta [24] = experiment: Insecticidal activity against Liposcelis paeta in compound pret-reated wheat grains assessed as mortality at 1.6 ppm after 7 days (reference value: 7.8 +/-3.2%); type: functional; settings: 168 h
Lepinotus reticulatus [25] = experiment: Insecticidal activity against Lepinotus reticulatus in compound pre-treated rice grains assessed as effect on progeny production at 2.2 ppm after 30 days; type: functional, organism-based
[26] = tested on: Liposcelis bostrychophila; experiment: Insecticidal activity against Liposcelis bostrychophila (booklice) in compound pre-treated maize grains assessed as mortality at 1.6 ppm after 14 days (reference value: 13.5 +/-5.3%); type: functional
Lepinotus reticulatus [27] = experiment: Insecticidal activity against Lepinotus reticulatus in compound pre-treated maize grains assessed as decrease in progeny production at 1.6 ppm after 30 days; type: functional, organism-based
Liposcelis entomophila [28] = experiment: Insecticidal activity against Liposcelis entomophila in compound pre-treated rice grains assessed as mortality at 2.2 ppm after 14 days (reference value: 10.0 +/-4.7%); type: functional
Lepinotus reticulatus [29] = experiment: Insecticidal activity against Lepinotus reticulatus in compound pre-treated rice grains assessed as mortality at 2.2 ppm after 14 days (reference value: 15.5 +/-4.1%); type: functional
Liposcelis paeta [30] = experiment: Insecticidal activity against Liposcelis paeta in compound pre-treated wheat grains assessed as mortality at 1.6 ppm after 14 days (reference value: 5.6 +/-1.8%); type: functional
Lepinotus reticulatus [31] = experiment: Insecticidal activity against Lepinotus reticulatus in compound pre-treated wheat grains assessed as mortality at 1.6 ppm after 7 days (reference value: 10.0 +/-5.3%); type: functional
[32] = tested on: Liposcelis bostrychophila; experiment: Insecticidal activity against Liposcelis bostrychophila (booklice) in compound pre-treated wheat grains assessed as effect on progeny production at 1.6 ppm after 30 days; type: functional, organism-based
Liposcelis entomophila [33] = experiment: Insecticidal activity against Liposcelis entomophila in compound pre-treated maize grains assessed as mortality at 1.6 ppm after 7 days (reference value: 15.6 +/-6.9%); type: functional

C=C/C=C\CC1=C(C)[C@@H](OC(=O)[C@@H]2[C@@H](/C=C(\C)C(=O)OC)C2(C)C)CC1=O [PYRETHRIN]
mortality at 1.6 ppm (Lepinotus reticulatus [1]): 65.7%
mortality at 1.6 ppm (Liposcelis entomophila [2]): 55.6%
mortality at 1.6 ppm (Liposcelis entomophila [3]): 60%
mortality at 2.2 ppm (Liposcelis paeta [4]): 15.7%
mortality at 2.2 ppm [5]: 26.5%
inhibition (Liposcelis entomophila [6]): inactive
inhibition [7]: Active
mortality at 1.6 ppm [8]: 17.8%
mortality at 1.6 ppm (Liposcelis paeta [9]): 18.9%
inhibition (Lepinotus reticulatus [10]): Active
mortality at 2.2 ppm (Liposcelis entomophila [11]): 8.9%
mortality at 1.6 ppm [12]: 18.9%
inhibition (Liposcelis entomophila [13]): Active
mortality at 2.2 ppm [14]: 23.3%
mortality at 1.6 ppm (Lepinotus reticulatus [15]): 86.7%
mortality at 1.6 ppm (Liposcelis entomophila [16]): 47.8%
mortality at 1.6 ppm [17]: 30%
inhibition (Liposcelis entomophila [18]): Active
mortality at 2.2 ppm (Lepinotus reticulatus [19]): 23.4%
mortality at 1.6 ppm (Liposcelis paeta [20]): 10%
mortality at 2.2 ppm (Liposcelis paeta [21]): 31.1%
inhibition [22]: inactive
mortality at 1.6 ppm (Lepinotus reticulatus [23]): 57.8%
mortality at 1.6 ppm (Liposcelis paeta [24]): 14.5%
inhibition (Lepinotus reticulatus [25]): inactive
mortality at 1.6 ppm [26]: 23.3%
inhibition (Lepinotus reticulatus [27]): Active
mortality at 2.2 ppm (Liposcelis entomophila [28]): 16.7%
mortality at 2.2 ppm (Lepinotus reticulatus [29]): 14.3%
mortality at 1.6 ppm (Liposcelis paeta [30]): 14.4%
mortality at 1.6 ppm (Lepinotus reticulatus [31]): 41.1%
inhibition [32]: inactive
mortality at 1.6 ppm (Liposcelis entomophila [33]): 17.8%
